Laboratory results as given in patent US10322108B2, “N-benzoate group substituted benzopyrroline-2-one derivative and use thereof” (BEIJING HANMI PHARMACEUTICAL CO., LTD., priority 2015, dated 2019).

Assays:
Th17 cells = experiment: Differentiation inhibition experiments on Th17 cells (IL-17A content in supernatant by ELISA); assay type: cell-based, C57 mouse; conditions: 1 μM compound; differentiation of mouse naïve CD4+ T cells to Th17, IL-17A ELISA; read-out: Inhibition Rate (1 μM)
Experimental: 5 μg/mL mouse CD3 antibody (purchased from BD) was coated on a 96-well plate (37° C., 2-6 hours) and stored for future use. C57 mouse lymph gland naïve CD4 positive T cells were separated using CD4+ T cell isolation kit II (purchased from MACS), and were inoculated to the coated 96-well plate at 5×10^5 cells/well/100 μL. The test sample was gradient diluted with RMPI-1640 culture medium (Gibco, 22440), and was made to be 4 times of the final concentration (starting from 1 μM, 10 times dilution, setting 6 drug concentrations). The diluted test sample was added at 50 μL/well to the test well inoculated with cells. To each of the positive and negative control wells was added 50 μL RMPI-1640 culture medium. To each of the test wells and the positive control wells was further added 50 μL mixed solution of activators (20 ug/mL mouse CD28 antibody (purchased from BD); 40 ug/mL mouse IL-4 antibody (purchased from BD); 40 ug/mL mouse IFNγ antibody (purchased from BD); 4 ng/mL mouse TGF-β1 (purchased from R&D); 200 ng/mL mouse IL-6 (purchased from R&D); 20 ng/mL mouse IL-23 (purchased from R&D)) having a 4-fold final concentration; to the negative control well was added 50 μL RMPI-1640 culture medium. The loaded 96-well plate was placed in an incubator at 37° C., 5% CO2 and was cultured for 66 hours, followed by adding to each well 50 uL mixed solution of PMA (purchased from Sigma, working concentration: 50 ng/mL) and Ionomycin (purchased from Sigma, working concentration: 1 ug/mL), and culturing at 37° C. for another 6 hours. After the culture was completed, a cell culture supernatant was taken, and the IL-17A content in the supernatant was determined using mouse IL-17A ELISA kit (purchased from Dakewe), and the inhibition rate and the IC50 value were calculated. The specific operation followed the kit specification (see below):
(1) Determining the number of required strips according to the number of the test wells (blank and standard); taking out the Washing buffer (50×) and the ready-to-use solution from the kit 20 min in advance to balance to room temperature.
(2) Loading samples: adding diluted Cytokine standard to the standard well at 100 μL/well, adding the sample to the sample well at 100 μL/well, setting a blank well, in which Dilution buffer R (1×) was used instead of the sample and the standard.
(3) Adding testing antibody: adding diluted Biotinylated antibody at 50 μL/well; covering with a sealing film after mixing uniformly, and incubating at 37° C. for 90 min.
(4) Washing the plate: deducting the liquid in the well, adding 1× washing buffer at 300 μL/well; maintain for 1 min, then discarding the liquid in the well; repeating 4 times, each time deducting to dryness on filter pater.
(5) Adding enzyme: adding diluted Streptavidin-HRP at 100 μL/well; covering with a sealing film, and incubating at 37° C. for 30 min.
(6) Washing the plate: repeating […].
(7) Color development: adding TMB at 100 μL/well, incubating at 37° C. in a dark place for 5-30 min, and determining to terminate the reaction according to the depth of the color in the well (dark blue). Normally, a good effect can be achieved by color development for 10-20 min.
(8) Terminating the reaction: rapidly adding a stop solution at 100 μL/well to terminate the reaction.
Reading the plate: 10 min after termination, reading the value using a measurement wavelength of 450 nm.

RORγ-LBD = RORγ-LBD (Homo sapiens (Human), UniProt P51449); experiment: LanthaScreen TR-FRET screening of RORγ-LBD / co-activator (Fluorescein-D22) interaction; conditions: read-out: IC50 Values; TR-FRET, 2 nM RORγ-LBD, 150 nM Fluorescein-D22 co-activator
Sequence of RORγ-LBD (P51449 269-508): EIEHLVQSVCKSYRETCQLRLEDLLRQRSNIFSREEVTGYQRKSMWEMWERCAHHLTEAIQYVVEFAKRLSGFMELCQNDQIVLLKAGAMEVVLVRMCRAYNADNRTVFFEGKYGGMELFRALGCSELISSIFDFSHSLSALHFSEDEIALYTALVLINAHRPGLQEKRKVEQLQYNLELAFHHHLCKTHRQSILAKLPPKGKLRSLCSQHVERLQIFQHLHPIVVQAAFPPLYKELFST

Structure (SMILES) | inhibition at 1 µM (Th17 cells) [%] | IC50 (RORγ-LBD) [nM]
Cc1cccc2c1/C(=C/c1c(Cl)cccc1C1CC1)C(=O)N2c1ccc(C(=O)O)c(O)c1 [Example 1, (trans)-4-(3-(2-chloro-6-cyclopropyl-benzylidene)-4-methylindolin-2-on-1-yl)-2-hydroxy benzoic acid] | > 50 | < 100
Cc1cccc2c1/C(=C/c1c(Cl)cccc1C1CC1)C(=O)N2c1ccc(C(=O)O)cc1 [Example 2A, (trans)-4-(3-(2-chloro-6-cyclopropyl-benzylidene)-4-methylindolin-2-on-1-yl)-benzoic acid] | > 50 | < 100
COc1cccc(Cl)c1/C=C1\C(=O)N(c2ccc(C(=O)O)c(O)c2)c2cccc(C)c21 [Example 3, (trans)-4-(3-(2-chloro-6-methoxy-benzylidene)-4-methylindolin-2-on-1-yl)-2-hydroxybenzoic acid] | > 50 | < 100
Cc1cccc2c1/C(=C/c1c(Cl)cccc1Cl)C(=O)N2c1ccc(C(=O)O)c(O)c1 [Example 4, (trans)-4-(3-(2,6-dichloro-benzylidene)-4-methylindolin-2-on-1-yl)-2-hydroxybenzoic acid] | > 50 | < 100
Cc1cccc(Cl)c1/C=C1\C(=O)N(c2ccc(C(=O)O)c(O)c2)c2cccc(C)c21 [Example 10, (trans)-4-(3-(2-chloro-6-methyl-benzylidene)-4-methylindolin-2-on-1-yl)-2-hydroxybenzoic acid] | > 50 | < 100
O=C(O)c1ccc(N2C(=O)/C(=C\c3c(Cl)cccc3Cl)c3c(F)cccc32)cc1 [Example 15A, (trans)-4-(3-(2,6-dichloro-benzylidene)-4-fluoro-indolin-2-on-1-yl)-benzoic acid] | > 50 | < 100
O=C(O)c1ccc(N2C(=O)/C(=C/c3c(Cl)cccc3Cl)c3c(F)cccc32)cc1 [Example 15B, (cis)-4-(3-(2,6-dichloro-benzylidene)-4-fluoro-indolin-2-on-1-yl)-benzoic acid] | < 50 | < 100
O=C(O)c1ccc(N2C(=O)/C(=C/c3c(Cl)cccc3C3CC3)c3c(F)cccc32)cc1 [Example 16B, (cis)-4-(3-(2-chloro-6-cyclopropyl-benzylidene)-4-fluoro-indolin-2-on-1-yl)-benzoic acid] | > 50 | < 100
